Assays:
[1] = test system: DU145; assay: monolayer proliferation assay (modified propidium iodide assay), DU145; type: cell-based, human; conditions: DU145 (Prostate - PTEN positive), 4 days continuous exposure
Protocol: (§1) In vitro evaluation of compounds for anticancer activity in a panel of human tumour cell lines in a monolayer proliferation assay was carried out at the Oncotest Testing Facility, Institute for Experimental Oncology, Oncotest GmbH, Freiburg.
(§2) The Oncotest cell lines were established from human tumor xenografts as described by Roth et al., (1999). The origin of the donor xenografts was described by Fiebig et al., (1999). Other cell lines are either obtained from the NCI (DU145, MCF-7) or purchased from DSMZ, Braunschweig, Germany.
(§3) All cell lines, unless otherwise specified, were grown at 37° C. in a humidified atmosphere (95% air, 5% CO2) in a ‘ready-mix’ medium containing RPMI 1640 medium, 10% fetal calf serum, and 0.1 mg/mL gentamicin (PAA, Cölbe, Germany).
(§4) A modified propidium iodide assay was used to assess the effects of the test compound(s) on the growth of the human tumour cell lines (Dengler et al., (1995)).
(§5) Briefly, cells were harvested from exponential phase cultures by trypsinization, counted and plated in 96 well flat-bottomed microtitre plates at a cell density dependent on the cell line (5-10.000 viable cells/well). […] After thawing the plates, fluorescence was measured using the Cytofluor 4000 microplate reader (excitation 530 nm, emission 620 nm), giving a direct relationship to the total number of viable cells.
(§6) Growth inhibition is expressed as treated/control×100 (% T/C). […]

[2] = test system: MCF-7; assay: monolayer proliferation assay (modified propidium iodide assay), MCF-7; type: cell-based, human; conditions: MCF-7 (Breast), 4 days continuous exposure
Protocol: as §1, §2, §3, §4, §5, §6

[3] = test system: CNXF 498NL; assay: monolayer proliferation assay (modified propidium iodide assay), CNXF 498NL; type: cell-based, human; conditions: CNXF 498NL (CNS), 4 days continuous exposure
Protocol: as §1, §2, §3, §4, §5, §6

[4] = test system: CXF HT29; assay: monolayer proliferation assay (modified propidium iodide assay), CXF HT29; type: cell-based, human; conditions: CXF HT29 (Colon), 4 days continuous exposure
Protocol: as §1, §2, §3, §4, §5, §6

[5] = test system: LXF 1121L; assay: monolayer proliferation assay (modified propidium iodide assay), LXF 1121L; type: cell-based, human; conditions: LXF 1121L (Lung, large cell ca), 4 days continuous exposure
Protocol: as §1, §2, §3, §4, §5, §6

[6] = test system: MEXF 394NL; assay: monolayer proliferation assay (modified propidium iodide assay), MEXF 394NL; type: cell-based, human; conditions: MEXF 394NL (Melanoma), 4 days continuous exposure
Protocol: as §1, §2, §3, §4, §5, §6

[7] = target: terminal deoxynucleotidyl transferase (Homo sapiens, UniProt P04053); conditions: cited from earlier work
[8] = test system: Reverse transcriptase; conditions: cited from earlier work

terminal deoxynucleotidyl transferase, sequence (P04053 whole entry, species assumed): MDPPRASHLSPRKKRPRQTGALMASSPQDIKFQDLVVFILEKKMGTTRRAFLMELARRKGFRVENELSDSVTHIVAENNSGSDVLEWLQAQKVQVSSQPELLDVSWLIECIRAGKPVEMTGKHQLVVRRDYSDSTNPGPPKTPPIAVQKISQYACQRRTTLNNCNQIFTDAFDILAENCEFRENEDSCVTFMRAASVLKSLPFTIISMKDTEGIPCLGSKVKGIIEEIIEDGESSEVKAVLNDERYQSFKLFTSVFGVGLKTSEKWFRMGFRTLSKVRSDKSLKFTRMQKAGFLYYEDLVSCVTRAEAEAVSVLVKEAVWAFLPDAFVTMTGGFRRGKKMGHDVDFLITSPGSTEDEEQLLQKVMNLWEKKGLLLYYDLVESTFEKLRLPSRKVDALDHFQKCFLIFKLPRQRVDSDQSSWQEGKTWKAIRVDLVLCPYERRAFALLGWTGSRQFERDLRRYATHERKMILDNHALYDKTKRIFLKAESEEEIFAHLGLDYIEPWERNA

Compound | Test/Control (%) at drug concentration ([1]; 1 μg/mL) [%] | Test/Control (%) at drug concentration ([1]; 10 μg/mL) [%] | Test/Control (%) at drug concentration ([2]; 1 μg/mL) [%] | Test/Control (%) at drug concentration ([2]; 10 μg/mL) [%] | Test/Control (%) at drug concentration ([3]; 1 μg/mL) [%] | Test/Control (%) at drug concentration ([3]; 10 μg/mL) [%] | Test/Control (%) at drug concentration ([4]; 1 μg/mL) [%] | Test/Control (%) at drug concentration ([4]; 10 μg/mL) [%] | Test/Control (%) at drug concentration ([5]; 1 μg/mL) [%] | Test/Control (%) at drug concentration ([5]; 10 μg/mL) [%] | Test/Control (%) at drug concentration ([6]; 1 μg/mL) [%] | Test/Control (%) at drug concentration ([6]; 10 μg/mL) [%] | terminal deoxynucleotidyl transferase activity inhibition [7] | Reverse transcriptase activity inhibition [8]
CO[C@H]1[C@@H](OC)C[C@H](C)[C@@H](O)C2=CC(=O)C=C(NC(=O)/C(C)=C/C=C\[C@H](C)[C@@H](OC(N)=O)/C(C)=C/[C@@H]1C)C2=O [Compound 14, 15-O-desmethylmacbecin] | 49.7 | 6 | 65.3 | 15.3 | 49.3 | 4.7 | 58.3 | 7.7 | 63 | 6 | 17 | 2.3 | – | –
CO[C@H]1[C@@H](OC)C[C@H](C)[C@@H](OC)C2=CC(=O)C=C(NC(=O)/C(C)=C/C=C\[C@H](C)[C@@H](OC(N)=O)/C(C)=C/[C@@H]1C)C2=O [Macbecin, macbecin] | – | – | – | – | – | – | – | – | – | – | – | – | not inhibited | not inhibited

Source: US20090209507A1, “15-O-Desmethylmacbecin Derivatives and Their Use in the Treatment of Cancer or B-Cell Malignancies” (priority 2006, published 2009)
